Patent US11572590B2, “Methods for evaluating tumor cell spheroids using 3D microfluidic cell culture device” (Dana-Farber Cancer Institute, Inc., priority 2017, dated 2023)
Where two headings read alike, the source gives them in different places.

How the values were obtained:
Assay in all cases: SelectScreen Kinase Profiling, single point inhibition and IC50 for off-target kinases
Assay type in all cases: biochemical
off-target kinases [1] = biological target: T1, off-target kinases (Homo sapiens, UniProt P51955); details: NEK2, ZLYTE, ATP Km app
T1 sequence (P51955 1-445): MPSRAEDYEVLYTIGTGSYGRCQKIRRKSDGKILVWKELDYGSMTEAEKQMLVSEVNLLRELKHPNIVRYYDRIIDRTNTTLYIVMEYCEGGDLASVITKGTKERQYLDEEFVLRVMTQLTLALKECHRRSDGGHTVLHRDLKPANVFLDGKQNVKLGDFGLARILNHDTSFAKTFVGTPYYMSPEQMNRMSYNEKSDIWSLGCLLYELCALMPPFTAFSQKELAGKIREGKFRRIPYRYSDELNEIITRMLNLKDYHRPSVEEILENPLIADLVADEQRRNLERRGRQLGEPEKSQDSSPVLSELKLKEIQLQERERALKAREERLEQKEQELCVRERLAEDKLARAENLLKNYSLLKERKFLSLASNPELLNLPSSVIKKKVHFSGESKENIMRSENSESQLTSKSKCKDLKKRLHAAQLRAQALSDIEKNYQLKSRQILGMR

off-target kinases [2] = biological target: off-target kinases (Homo sapiens, UniProt P49840); details: GSK3A (GSK3 alpha), ZLYTE, ATP Km app
off-target kinases [3] = biological target: off-target kinases (Homo sapiens, UniProt P16234, T674I); details: PDGFRA T674I, mutant y, ZLYTE, ATP Km app
off-target kinases [4] = biological target: T2, off-target kinases (Homo sapiens, UniProt P36896); details: ACVR1B (ALK4); Cmpd1 1000 μM; ATP Km app; ZLYTE
T2 sequence (P36896 24-505): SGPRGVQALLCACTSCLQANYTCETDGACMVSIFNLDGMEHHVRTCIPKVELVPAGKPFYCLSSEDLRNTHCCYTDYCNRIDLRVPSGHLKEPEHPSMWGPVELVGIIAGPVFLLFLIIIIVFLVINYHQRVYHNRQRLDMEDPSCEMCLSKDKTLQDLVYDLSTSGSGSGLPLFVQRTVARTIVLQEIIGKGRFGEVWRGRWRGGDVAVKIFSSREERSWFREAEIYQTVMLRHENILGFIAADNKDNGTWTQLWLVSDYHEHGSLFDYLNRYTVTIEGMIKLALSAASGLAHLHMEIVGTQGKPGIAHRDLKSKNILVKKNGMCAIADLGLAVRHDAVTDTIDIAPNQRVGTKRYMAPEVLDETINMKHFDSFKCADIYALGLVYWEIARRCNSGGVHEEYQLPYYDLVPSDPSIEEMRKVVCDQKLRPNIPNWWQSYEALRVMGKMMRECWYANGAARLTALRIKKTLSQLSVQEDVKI

off-target kinases [5] = biological target: off-target kinases (Homo sapiens, UniProt P53779); details: MAPK10 (JNK3)
off-target kinases [6] = biological target: off-target kinases (Homo sapiens, UniProt Q9UBF8); details: PI4KB (PI4K beta), Adapta, ATP Km app
off-target kinases [7] = biological target: off-target kinases (Homo sapiens, UniProt P49137); details: MAPKAPK2, ZLYTE, ATP Km app
Sequence of off-target kinases (Homo sapiens, UniProt P49137) (P49137 whole entry): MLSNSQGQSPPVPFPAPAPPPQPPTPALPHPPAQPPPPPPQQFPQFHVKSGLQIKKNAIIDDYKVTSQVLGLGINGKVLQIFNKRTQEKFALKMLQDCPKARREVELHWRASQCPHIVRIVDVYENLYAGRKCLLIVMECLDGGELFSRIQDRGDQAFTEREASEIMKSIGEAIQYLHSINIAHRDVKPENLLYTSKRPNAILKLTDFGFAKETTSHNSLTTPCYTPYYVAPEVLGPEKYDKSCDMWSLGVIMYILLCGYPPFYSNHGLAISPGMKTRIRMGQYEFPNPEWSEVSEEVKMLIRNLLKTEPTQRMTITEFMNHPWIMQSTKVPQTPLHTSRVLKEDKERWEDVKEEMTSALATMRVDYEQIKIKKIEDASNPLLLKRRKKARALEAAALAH

Sequence of off-target kinases (Homo sapiens, UniProt Q9UBF8) (Q9UBF8 whole entry): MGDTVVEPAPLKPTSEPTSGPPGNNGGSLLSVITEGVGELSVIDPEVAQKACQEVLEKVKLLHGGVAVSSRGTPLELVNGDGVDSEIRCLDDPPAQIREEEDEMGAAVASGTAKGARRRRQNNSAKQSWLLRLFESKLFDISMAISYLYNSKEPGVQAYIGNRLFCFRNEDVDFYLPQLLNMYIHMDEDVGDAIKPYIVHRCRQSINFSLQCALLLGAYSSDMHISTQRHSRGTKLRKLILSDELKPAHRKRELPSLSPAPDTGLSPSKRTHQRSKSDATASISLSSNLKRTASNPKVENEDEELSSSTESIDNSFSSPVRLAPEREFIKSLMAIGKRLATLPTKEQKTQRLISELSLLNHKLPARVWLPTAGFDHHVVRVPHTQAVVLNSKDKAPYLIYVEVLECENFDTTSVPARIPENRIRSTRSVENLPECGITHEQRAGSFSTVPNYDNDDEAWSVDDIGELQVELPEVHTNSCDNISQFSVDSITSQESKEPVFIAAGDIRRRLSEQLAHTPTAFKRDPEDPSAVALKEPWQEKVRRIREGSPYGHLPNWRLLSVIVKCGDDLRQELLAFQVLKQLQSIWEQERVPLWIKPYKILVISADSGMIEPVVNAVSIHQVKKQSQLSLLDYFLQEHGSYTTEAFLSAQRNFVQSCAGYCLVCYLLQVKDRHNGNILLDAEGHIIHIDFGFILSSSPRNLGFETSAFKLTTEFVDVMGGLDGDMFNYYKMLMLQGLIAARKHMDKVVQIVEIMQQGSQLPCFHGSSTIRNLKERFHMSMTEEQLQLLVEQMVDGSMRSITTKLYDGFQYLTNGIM
Sequence of off-target kinases (Homo sapiens, UniProt P49840) (P49840 whole entry): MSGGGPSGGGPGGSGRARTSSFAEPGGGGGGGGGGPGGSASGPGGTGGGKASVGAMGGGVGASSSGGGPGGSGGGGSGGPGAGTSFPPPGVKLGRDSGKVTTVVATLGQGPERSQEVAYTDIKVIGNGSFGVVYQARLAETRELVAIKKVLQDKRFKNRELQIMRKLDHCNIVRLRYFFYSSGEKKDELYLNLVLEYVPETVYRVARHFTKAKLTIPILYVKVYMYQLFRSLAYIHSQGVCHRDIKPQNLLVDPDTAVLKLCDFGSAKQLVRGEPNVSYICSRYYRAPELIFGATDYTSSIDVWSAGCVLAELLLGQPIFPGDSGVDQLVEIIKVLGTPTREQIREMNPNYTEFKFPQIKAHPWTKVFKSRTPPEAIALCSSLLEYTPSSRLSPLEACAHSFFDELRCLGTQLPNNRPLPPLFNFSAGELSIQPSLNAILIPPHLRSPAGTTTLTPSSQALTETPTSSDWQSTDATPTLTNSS
Sequence of off-target kinases (Homo sapiens, UniProt P53779) (P53779 whole entry): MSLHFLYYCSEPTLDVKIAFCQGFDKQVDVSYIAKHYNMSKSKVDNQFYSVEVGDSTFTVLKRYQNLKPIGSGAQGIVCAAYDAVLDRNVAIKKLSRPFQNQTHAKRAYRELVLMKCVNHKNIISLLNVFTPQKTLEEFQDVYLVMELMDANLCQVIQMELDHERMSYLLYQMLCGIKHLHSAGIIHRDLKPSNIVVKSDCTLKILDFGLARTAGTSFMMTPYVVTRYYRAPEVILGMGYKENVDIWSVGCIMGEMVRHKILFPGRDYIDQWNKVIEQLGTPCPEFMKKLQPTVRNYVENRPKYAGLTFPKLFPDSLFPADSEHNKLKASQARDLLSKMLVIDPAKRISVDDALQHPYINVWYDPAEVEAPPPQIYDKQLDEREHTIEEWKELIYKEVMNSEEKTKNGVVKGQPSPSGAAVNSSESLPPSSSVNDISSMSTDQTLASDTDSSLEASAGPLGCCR
Sequence of off-target kinases (Homo sapiens, UniProt P16234, T674I) (P16234 24-1089 T674I): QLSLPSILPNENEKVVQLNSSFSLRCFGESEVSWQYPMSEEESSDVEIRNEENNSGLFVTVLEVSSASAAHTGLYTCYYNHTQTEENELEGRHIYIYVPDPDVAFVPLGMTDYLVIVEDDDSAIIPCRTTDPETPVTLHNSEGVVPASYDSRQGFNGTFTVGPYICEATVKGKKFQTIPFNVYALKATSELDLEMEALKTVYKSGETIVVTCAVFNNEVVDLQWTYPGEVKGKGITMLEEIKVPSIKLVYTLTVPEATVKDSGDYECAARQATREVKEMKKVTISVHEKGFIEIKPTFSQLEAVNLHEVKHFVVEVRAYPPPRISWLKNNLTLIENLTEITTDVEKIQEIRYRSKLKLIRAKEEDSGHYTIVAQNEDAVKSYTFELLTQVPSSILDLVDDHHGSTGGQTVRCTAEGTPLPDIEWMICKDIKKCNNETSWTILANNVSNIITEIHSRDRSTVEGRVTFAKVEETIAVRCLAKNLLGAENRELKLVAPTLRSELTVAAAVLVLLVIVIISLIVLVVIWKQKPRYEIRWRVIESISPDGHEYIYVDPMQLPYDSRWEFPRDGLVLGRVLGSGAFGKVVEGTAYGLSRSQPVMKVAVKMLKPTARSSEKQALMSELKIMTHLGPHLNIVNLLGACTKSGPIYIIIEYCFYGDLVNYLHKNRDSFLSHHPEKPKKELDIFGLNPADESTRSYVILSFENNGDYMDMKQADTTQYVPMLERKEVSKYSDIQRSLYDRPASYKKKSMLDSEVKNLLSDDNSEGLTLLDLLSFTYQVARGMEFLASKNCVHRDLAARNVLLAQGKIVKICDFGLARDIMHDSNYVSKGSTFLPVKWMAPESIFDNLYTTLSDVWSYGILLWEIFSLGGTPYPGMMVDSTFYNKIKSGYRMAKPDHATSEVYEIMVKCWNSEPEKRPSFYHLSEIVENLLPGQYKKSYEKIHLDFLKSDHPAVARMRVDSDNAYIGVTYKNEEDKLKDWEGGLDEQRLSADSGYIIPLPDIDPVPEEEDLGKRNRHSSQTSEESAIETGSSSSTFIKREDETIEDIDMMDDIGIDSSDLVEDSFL

Q: Which results are given for `N#Cc1cc(-c2ncnc(Nc3ccc(N4CCN(C5COC5)CC4)cc3)n2)ccc1OC1CCOCC1` [Compound 1, 5-(4-((4-(4-(oxetan-3-yl)piperazin-1-yl)phenyl)amino)-1,3,5-triazin-2-yl)-2-((tetrahydro-2H-pyran-4-yl)oxy)benzonitrile]?
A: inhibition (off-target kinases [1]; read-out: % Inhibition 1): 29%; inhibition (off-target kinases [1]; read-out: % Inhibition 2): 30%; inhibition (off-target kinases [1]; read-out: % Inhibition Avg): 30%; inhibition (off-target kinases [2]; read-out: % Inhibition 1): 20%; inhibition (off-target kinases [2]; read-out: % Inhibition 2): 22%; inhibition (off-target kinases [2]; read-out: % Inhibition Avg): 21%; inhibition (off-target kinases [3]; read-out: % Inhibition 1): 40%; inhibition (off-target kinases [3]; read-out: % Inhibition 2): 32%; inhibition (off-target kinases [3]; read-out: % Inhibition Avg): 36%; % Inhibition 1 (off-target kinases [4]): −10%; % Inhibition 2 (off-target kinases [4]): −4%; % Inhibition Avg (off-target kinases [4]): −7%; inhibition (off-target kinases [5]; LanthaScreen Binding, read-out: % Inhibition 1): 48%; inhibition (off-target kinases [5]; LanthaScreen Binding, read-out: % Inhibition 2): 49%; inhibition (off-target kinases [5]; LanthaScreen Binding, read-out: % Inhibition Avg): 49%; inhibition (off-target kinases [5]; ZLYTE, ATP 100, read-out: % Inhibition 1): 20%; inhibition (off-target kinases [5]; ZLYTE, ATP 100, read-out: % Inhibition 2): 21%; inhibition (off-target kinases [5]; ZLYTE, ATP 100, read-out: % Inhibition Avg): 20%; inhibition (off-target kinases [6]; read-out: % Inhibition 1): 7%; inhibition (off-target kinases [6]; read-out: % Inhibition 2): 3%; inhibition (off-target kinases [6]; read-out: % Inhibition Avg): 5%; inhibition (off-target kinases [7]; read-out: % Inhibition 1): 0%; inhibition (off-target kinases [7]; read-out: % Inhibition 2): -1%; inhibition (off-target kinases [7]; read-out: % Inhibition Avg): 0%
